From the CheMixHub ionic liquid set

Test: xn = mol fraction of the nth substance listed
Details: for electrical conductivity: 101 kPa; for viscosity: 100 kPa, x2 = 0

CCCCCCCCCCCC[N+](C)(C)Cc1ccccc1.[Cl-] + CC(C)C[C@H](NC(=O)CN)C(=O)O + O
electrical conductivity [S/m]
Details | 293.15 K | 298.15 K | 303.15 K | 308.15 K | 313.15 K
x2 = 0.0008999, x1 = 0.0002654 | 0.0792 | 0.0889 | 0.0993 | 0.11 | 0.123
x2 = 0.0008999, x1 = 0.0002843 | 0.0824 | 0.0926 | 0.104 | 0.116 | 0.129
x2 = 0.0008999, x1 = 0.0003023 | 0.0854 | 0.096 | 0.107 | 0.12 | 0.134
x2 = 0.0008999, x1 = 0.0003252 | 0.0892 | 0.101 | 0.113 | 0.126 | 0.14
x2 = 0.0009, x1 = 0.0001699 | 0.0609 | 0.068 | 0.0754 | 0.0833 | 0.0918
x2 = 0.0009, x1 = 0.000197 | 0.0669 | 0.0747 | 0.083 | 0.0919 | 0.102
x2 = 0.0009, x1 = 0.000222 | 0.0716 | 0.0801 | 0.0893 | 0.0991 | 0.11
x2 = 0.0009, x1 = 0.0002447 | 0.0757 | 0.0848 | 0.0946 | 0.105 | 0.117
x2 = 0.0009001, x1 = 5.034e-05 | 0.0218 | 0.0243 | 0.0272 | 0.0302 | 0.0333
x2 = 0.0009001, x1 = 7.251e-05 | 0.03 | 0.0335 | 0.0373 | 0.0412 | 0.0454
x2 = 0.0009001, x1 = 9.522e-05 | 0.038 | 0.0425 | 0.0473 | 0.0521 | 0.0573
x2 = 0.0009001, x1 = 0.0001178 | 0.0458 | 0.0511 | 0.0567 | 0.0625 | 0.0687
x2 = 0.0009001, x1 = 0.0001434 | 0.0539 | 0.0601 | 0.0666 | 0.0734 | 0.0808
x2 = 0.001793, x1 = 4.141e-05 | 0.0191 | 0.0215 | 0.0243 | 0.0271 | 0.0301
x2 = 0.001793, x1 = 6.45e-05 | 0.0271 | 0.0306 | 0.0342 | 0.038 | 0.0421
x2 = 0.001793, x1 = 8.905e-05 | 0.0354 | 0.0397 | 0.0444 | 0.0491 | 0.0542
x2 = 0.001793, x1 = 0.0001112 | 0.0424 | 0.0477 | 0.0531 | 0.0587 | 0.0648
x2 = 0.001793, x1 = 0.0001367 | 0.05 | 0.056 | 0.0624 | 0.069 | 0.0761
x2 = 0.001793, x1 = 0.0001631 | 0.0569 | 0.0637 | 0.0707 | 0.0787 | 0.0879
x2 = 0.001793, x1 = 0.0001904 | 0.0632 | 0.0708 | 0.0791 | 0.0877 | 0.0969
x2 = 0.001793, x1 = 0.0002156 | 0.0683 | 0.0767 | 0.0859 | 0.0955 | 0.106
x2 = 0.001793, x1 = 0.0002389 | 0.0727 | 0.0819 | 0.0918 | 0.102 | 0.114
x2 = 0.001793, x1 = 0.00026 | 0.0766 | 0.0863 | 0.0969 | 0.108 | 0.121
x2 = 0.001793, x1 = 0.0002803 | 0.0802 | 0.0905 | 0.102 | 0.114 | 0.127
x2 = 0.001793, x1 = 0.0003015 | 0.0838 | 0.0947 | 0.107 | 0.12 | 0.133
x2 = 0.001793, x1 = 0.0003211 | 0.0872 | 0.0986 | 0.112 | 0.125 | 0.139

CS(C)=O + CCCC[n+]1ccn(C)c1.O=S(=O)([O-])C(F)(F)F
Details | viscosity [mPa·s]
298.15 K | 2.03
303.15 K | 1.84
308.15 K | 1.67
313.15 K | 1.53
318.15 K | 1.41
323.15 K | 1.3
